Measured values taken from US20010055756A1, “Internal de novo initiation sites of the HCV NS5B polymerase and use thereof” (priority 2000, published 2001).
Entries after “also recorded” stand apart in the source; their conditions may differ.

Test system: HCV NS5B polymerase
Test: Testing of GTP analogs in the NS5B de novo initiation reaction with RNA template 24-1
Assay type: biochemical, hepatitis C virus
Settings: analog at 500 μM added to reactions with 100 μM or 500 μM GTP, 5 nM NS5B, 10 nM template 24-1, 2.5 h
Method: Unless indicated otherwise, the standard reactions that incorporated [α-^33P]UTP contained 5 nM of purified NS5B and 10-50 nM of the indicated RNA template (i.e.: 24, 24-1, 128-4, 130-21, 150-41 or mutant templates) incubated at 22° C. for 2.5 h in 22.5 mM Tris-HCl pH 7.5, 5 mM MgCl2, 1 mM EDTA, 1.5 mM DTT, 30 mM NaCl, 0.33% N-Dodecyl-β-D-Maltoside, 0.01% Igepal CA-630, 5% DMSO, 5 μCi [α-^33P]UTP, 10 μM UTP, 500 μM of the three other rNTPs and 0.16 U/μl RNase inhibitor (Promega). NS5B polymerase reactions that incorporated γ-^32P into the radioactively labeled 5′product were supplemented with either 8 μCi of [γ-^32P]GTP or [γ-^32P]ATP in place of [α-^33P]UTP in the standard reaction. The reactions were then supplemented with PK buffer (50 mM Tris HCl pH 7.5 150 mM NaCl, 0.5% SDS) and treated with Proteinase K (0.8 μg /μl) and glycogen (0.1 μg/μl) for 30 min at 37° C. RNA was extracted with phenol-chloroform and precipitated with isopropanol. The RNA pellet was dissolved in 10-15 μl of denaturing solution (80% formamide, 10 mM EDTA), heated for 10 min at 70-75° C. and analysed on denaturing 8 M urea/5% polyacrylamide gels. Gels were dried and radioactive products visualized with a phospho-imager (Molecular Dynamics).
m7GpppG and GpppG were purchased from Ambion; Ribavirin monophosphate and Ribavirin triphosphate were purchased from Chemgenes (Ashland, Mass.); ddGTP was from Amersham; Caged GTP was from Molecular Probes. All other GTP analogs were from Sigma/Aldrich. Each of the analogs was added (at 500 μM) to the NS5B polymerization reaction containing either: 100 μM or 500 μM GTP (reference reactions). Stimulation by GTP itself, as a positive control, was performed such that the reactions then contained 600 μM or 1 mM GTP (respectively labeled as the +500 μM GTP bars). The standard polymerase reactions incorporating [α-^33P]UTP were incubated for 2.5 h in the presence of 5 nM NS5B and 10 nM of RNA template 24-1. The reactions were stopped by spotting 8 μl on a DE81 filters which were then washed extensively (3×) with 1M NaPO4 pH 7 and dried. The radioactivity incorporated into product RNA that was retained on the DE-81 filters was measured in a scintillation counter. The effect of the various analogs on the reaction is represented by the fold stimulation of activity compared to 100μM or 500μM GTP (reference reaction bars). 5′-p-FSBA=5′-p-fluorosulfonyl-benzoyladenosine

Compound | effect on de novo initiation reaction (fold stimulation relative to GTP alone) | further results
Nc1nc2c(ncn2[C@@H]2O[C@H](COP(=O)(O)O)[C@@H](O)[C@H]2O)c(=O)[nH]1 [GMP] | stimulating | 
Cn1c[n+]([C@@H]2O[C@H](COP(=O)(O)OP(=O)([O-])OP(=O)(O)OC[C@H]3O[C@@H](n4cnc5c(=O)[nH]c(N)nc54)[C@H](O)[C@@H]3O)[C@@H](O)[C@H]2O)c2nc(N)[nH]c(=O)c21 [m7 GpppG, 7-methyl GpppG] | most efficient analogs in stimulating de novo initiation | effect on de novo initiation reaction (fold stimulation relative to GTP alone) (listed as 7-methyl GpppG): stimulating; also recorded: stimulate
Nc1nc2c(ncn2C(C=O)OC(C=O)COP(=O)(O)OP(=O)(O)OP(=O)(O)O)c(=O)[nH]1.[Na] (stereo not drawn) [GTP 2′3′-dialdehyde] | clear inhibitor; also recorded: inhibiting | effect on de novo initiation reaction (fold stimulation relative to GTP alone) (listed as GTP 2′3′dialdehyde): inhibitory
Nc1nc2c(ncn2[C@@H]2O[C@H](CO)[C@@H](O)[C@H]2O)c(=O)[nH]1 [guanosine] | stimulating; also recorded: stimulate | 
GDP-γ-S | stimulating | 
CC(OP(=O)(O)OP(=O)(O)OP(=O)(O)OC[C@H]1O[C@@H](n2cnc3c(=O)[nH]c(N)nc32)[C@H](O)[C@@H]1O)c1ccccc1[N+](=O)[O-] (stereo partly drawn) [caged-GTP] | stimulating | 
Nc1nc2c(ncn2[C@@H]2O[C@H](COP(=O)(O)OP(=O)(O)OP(=O)(O)O)[C@@H](O)[C@H]2O)c(=O)[nH]1 [GTP] | activation | 
NC(=O)c1ncn([C@@H]2O[C@H](CO[P@@](=O)(O)O[P@](=O)(O)OP(=O)(O)O)[C@@H](O)[C@H]2O)n1 [ribavirin tri-phosphate, Ribavirin triphosphate] | moderate level of inhibition | effect on de novo initiation reaction (fold stimulation relative to GTP alone) (listed as ribavirin triphosphate): inhibiting; also recorded: inhibitory
Nc1nc2c(ncn2[C@@H]2O[C@H](COP(=O)(O)OP(=O)(O)OP(=O)(O)OC[C@H]3O[C@@H](n4cnc5c(=O)[nH]c(N)nc54)[C@H](O)[C@@H]3O)[C@@H](O)[C@H]2O)c(=O)[nH]1 [GpppG] | most efficient analogs in stimulating de novo initiation; also recorded: stimulating; also recorded: stimulate | 
